System: isolated microspores of vegetable fennel (VF-2)
Assay: Isolated microspore culture of fennel with EBR in the medium (embryo formation)
Type: cell-based, fennel (Foeniculum vulgare)
Conditions: FIG. 5
Method: FIG. 5. Effect of 24-Epibrassinolide on microspore embryogenesis of vegetable fennel (VF-2). A=NLN-25; B=NLN-25+0.1 mM EBR; C=NLN-25+1.0 mM EBR; D=NLN-25 changed to NLN-10; E=NLN-25+0.1 mM EBR changed to NLN-10; and F=NLN-25+1.0 mM EBR changed to NLN-10.
Several basal media were compared for fennel microspore embryogenesis. Donor plants for microspore culture were grown as described herein. Flower buds were measured and buds in the range of 1-3 mm were put into Lipshaw baskets. The Lipshaw baskets were immersed for one minute in 70% ethanol in a sterile beaker and placed on a shaker. After one minute, the ethanol was removed and the baskets containing the buds were rinsed with sterile water. The Lipshaw baskets were immersed for 15 min in 6% sodium hypochlorite in a sterile beaker placed on a shaker. After 15 min, the sodium hypochlorite was removed by three 5-min washes with sterile water. The buds were removed from the Lipshaw baskets with sterile forceps and placed in a mortar with 5 mL of half-strength Gamborg B5 medium with 13% sucrose. The buds were gently crushed with a pestle, and the resulting suspension was filtered through a 44 μm nylon screen cloth into a 50 mL sterile centrifuge tube. The mortar and filter were rinsed three times with 5 mL of half-strength B5-13 which was filtered and added to the suspension to a total of 20 mL. […]

CC(C)[C@@H](C)[C@@H](O)[C@H](O)[C@@H](C)[C@H]1CC[C@H]2[C@@H]3COC(=O)[C@H]4C[C@H](O)[C@H](O)C[C@]4(C)[C@H]3CC[C@]12C [24 EBR, 24-epibrassinolide]
fennel embryo formation (microspore embryogenesis) (continued exposure to EBR, NLN-25 medium, 32° C. for 3 days then 24° C.): somewhat inhibitory
fennel embryo formation (microspore embryogenesis) (media change after 72 h to a lower sucrose concentration and removal of the EBR): stimulatory
